Among the data in patent publication US8193191B2, “Urotensin II receptor antagonists” (Janssen Pharmaceutica N.V., priority 2006, dated 2012) are inhibition and IC50 values, retold here.

This assay has as its target T1, rat GPR14 (U-II receptor) (Rattus norvegicus, UniProt P49684).
T1 construct: expressed in transfected cells
T1 sequence (P49684 1-386): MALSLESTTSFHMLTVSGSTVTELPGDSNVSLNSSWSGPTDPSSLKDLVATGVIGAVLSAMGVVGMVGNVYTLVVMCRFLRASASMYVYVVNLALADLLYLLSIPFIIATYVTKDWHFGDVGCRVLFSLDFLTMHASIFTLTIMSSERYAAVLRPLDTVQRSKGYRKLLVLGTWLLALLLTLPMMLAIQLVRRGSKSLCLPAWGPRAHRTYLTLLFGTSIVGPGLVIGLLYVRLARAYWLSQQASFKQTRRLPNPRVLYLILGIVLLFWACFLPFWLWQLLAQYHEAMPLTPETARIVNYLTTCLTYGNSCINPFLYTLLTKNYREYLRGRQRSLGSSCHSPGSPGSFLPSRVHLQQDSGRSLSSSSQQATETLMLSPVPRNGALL
In words: Rat UII Calcium Mobilization FLIPR Assay. In kind it is cell-based. Conditions: for inhibition at 10 µM / inhibition at 50 µM: CHO, 5 min, agonist-induced Ca2+ mobilization (FLIPR), CHO cells with rat UII receptor; for inhibition at 10 µM: 10 μM compound, read-out: % I @ 10; for inhibition at 50 µM: 50 μM compound, read-out: % I @ 50; for IC50: Inhibition of Acetyl-cyclic[Cys-Phe-Trp-Lys-(2-Nal)-Cys]-NH2 induced Ca2+ mobilization (FLIPR) in CHO cells transfected with rat UII receptor, read-out: IC50. An excerpt:
To derive these cells, the complete coding sequence of rat U-II (Genbank Accession No. U32673) was amplified by nested PCR from rat heart marathon-Ready cDNA. […] The PCR products were cloned into pcDNA3 (Invitrogen) digested with EcoR I and Xba I. Clones containing rat U-II receptor were verified by complete sequencing of the U-II receptor insert to ensure a lack of PCR-introduced errors. The constructed vector was transfected into CHO cells by using lipofectamine (GIBCO BRL). CHO cells with high expression of rat U-II receptor were selected and established as stable cell lines by using G418. CHO cells were seeded at 25,000 cells per well into 96-well, black-wall, clear-bottom microtiter plates 24 h before assay. Cells in culture media (DMEM/F12 containing 15 mM HEPES, L-glutamine, pyridoxine hydrochloride; 10% fetal bovine serum; 1 mg/mL G418 sulfate; antibiotic-antimycotic; pH 7.4) were loaded with proprietary dye, from the FLIPR Calcium Assay Kit (Molecular Devices), prepared in assay buffer (Hanks Balanced Salts Solution, 20 mM HEPES, 0.1% BSA, 2.5 mM probenecid, pH 7.4), and incubated for 1 h at 37° C. Calcium mobilization determinations were performed at room temperature (23° C.).
In general terms: A change in cytosolic calcium serves as a functional read-out for many receptors and channels.

Usually IC50 stands for the concentration that gives 50% inhibition. Take `COc1ccc(CN2C(=O)c3cccc(N4CCN(Cc5ccc(C)cc5)CC4)c3C2=O)cc1OC` [Cpd 40, 2-(3,4-dimethoxy-benzyl)-4-[4-(4-methyl-benzyl)-piperazin-1-yl]-isoindole-1,3-dione]: the inhibition at 10 µM came out at 47%, the inhibition at 50 µM is 87% and the IC50 was 9 µM.

As for `CCCOc1ccc(CN2C(=O)c3cccc(N4CCN([C@H](C)c5ccccc5)CC4)c3C2=O)cc1OC` [Cpd 41, 2-(3-methoxy-4-propoxy-benzyl)-4-[4-(1R)-(1-phenyl-ethyl)-piperazin-1-yl]-isoindole-1,3-dione], the inhibition at 10 µM came out at 57%, the inhibition at 50 µM came to 69% and the IC50 came to 9.8 µM.

Regarding `COc1ccc(CN2C(=O)c3cccc(N4C[C@@H](C)N(Cc5ccccc5)[C@@H](C)C4)c3C2=O)cc1OC` [Cpd 42, (3R,5S)-4-(4-benzyl-3,5-dimethyl-piperazin-1-yl)-2-(3,4-dimethoxy-benzyl)-isoindole-1,3-dione], the inhibition at 10 µM stood at 55%, the inhibition at 50 µM was determined as 78% and the IC50 worked out at 10 µM.

In the case of `O=C1c2cccc(N3CCN(Cc4ccccc4)CC3)c2C(=O)N1CCc1ccncc1` [Cpd 43, 4-(4-benzyl-piperazin-1-yl)-2-(2-pyridin-4-yl-ethyl)-isoindole-1,3-dione], the inhibition at 10 µM came to 50%, the inhibition at 50 µM came to 97% and the IC50 turned out to be 10 µM.

As for `COc1ccc(CN2C(=O)c3cccc(N4CCN(Cc5cccc(Cl)c5)CC4)c3C2=O)cc1OC` [Cpd 44, 4-[4-(3-chloro-benzyl)-piperazin-1-yl]-2-(3,4-dimethoxy-benzyl)-isoindole-1,3-dione], the inhibition at 10 µM came to 42%, the inhibition at 50 µM was 79% and the IC50 is 12 µM.

`COc1cc(CN2C(=O)c3cccc(N4CC5CCC(C4)N5Cc4ccccc4)c3C2=O)cc(OC)c1` [Cpd 45, 4-(8-benzyl-3,8-diaza-bicyclo[3.2.1]oct-3-yl)-2-(3,5-dimethoxy-benzyl)-isoindole-1,3-dione]: the inhibition at 10 µM stood at 55%, the inhibition at 50 µM is 40% and the IC50 was 13 µM.

For the compound `COc1ccc(CN2C(=O)c3cccc(N4CCN(Cc5cc(F)cc(F)c5)CC4)c3C2=O)cc1OC` [Cpd 46, 4-[4-(3,5-difluoro-benzyl)-piperazin-1-yl]-2-(3,4-dimethoxy-benzyl)-isoindole-1,3-dione], the inhibition at 10 µM was found to be 48%, the inhibition at 50 µM came out at 54% and the IC50 was 14 µM.

For `O=C1c2cccc(N3CCN(Cc4ccccc4)CC3)c2C(=O)N1CCCn1ccnc1` [Cpd 47, 4-(4-benzyl-piperazin-1-yl)-2-(3-imidazol-1-yl-propyl)-isoindole-1,3-dione], the inhibition at 10 µM was 25%, the inhibition at 50 µM was 78% and the IC50 is 15 µM.

Turning to `COc1ccc(CN2C(=O)c3cccc(NCCNCc4ccccc4)c3C2=O)cc1OC` [Cpd 48, 4-(2-benzylamino-ethylamino)-2-(3,4-dimethoxy-benzyl)-isoindole-1,3-dione], the inhibition at 10 µM turned out to be 41%, the inhibition at 50 µM was determined as 78% and the IC50 is 16 µM.

`COc1ccc(C(c2ccccc2)N2C(=O)c3cccc(N4CCN([C@H](C)c5ccccc5)CC4)c3C2=O)cc1OC` (stereo partly drawn) [Cpd 49, 2-[(3,4-dimethoxy-phenyl)-phenyl-methyl]-4-[4-(1R)-(1-phenyl-ethyl)-piperazin-1-yl]-isoindole-1,3-dione]: the inhibition at 10 µM turned out to be 58%, the inhibition at 50 µM amounted to 61% and the IC50 is 16 µM.

`COc1ccc(CN2C(=O)c3cccc(C4=CC5CCC(C4)N5Cc4ccccc4)c3C2=O)cc1OC` (stereo not drawn) [Cpd 50, 4-(8-benzyl-8-aza-bicyclo[3.2.1]oct-2-en-3-yl)-2-(3,4-dimethoxy-benzyl)-isoindole-1,3-dione]: the inhibition at 10 µM is 42%, the inhibition at 50 µM was found to be 77% and the IC50 turned out to be 17 µM.

Turning to `COc1ccc(CN2C(=O)c3cccc(N4C[C@@H](C)N(C(C)c5ccccc5)[C@@H](C)C4)c3C2=O)cc1OC` (stereo partly drawn) [Cpd 51, (3R,5S)-2-(3,4-dimethoxy-benzyl)-4-[3,5-dimethyl-4-(1-phenyl-ethyl)-piperazin-1-yl]-isoindole-1,3-dione], the inhibition at 10 µM is 43%, the inhibition at 50 µM amounted to 65% and the IC50 came to 18 µM.

Consider `COc1cc(CN2C(=O)c3cccc(N4CCN(C(C)C)CC4)c3C2=O)cc(OC)c1OC` [Cpd 52, 4-(4-isopropyl-piperazin-1-yl)-2-(3,4,5-trimethoxy-benzyl)-isoindole-1,3-dione], for which the inhibition at 10 µM was 17%, the inhibition at 50 µM is 71% and the half-maximal inhibitory concentration (IC50) was found to be 18 µM.

Consider `COc1ccc(CN2C(=O)c3cccc(OCCN(C)Cc4ccccc4)c3C2=O)cc1OC` [Cpd 53, 4-[2-(benzyl-methyl-amino)-ethoxy]-2-(3,4-dimethoxy-benzyl)-isoindole-1,3-dione], for which the inhibition at 10 µM was 22%, the inhibition at 50 µM came to 78% and the half-maximal inhibitory concentration (IC50) came out at 21 µM.

`COc1ccc(CN2C(=O)c3cccc(OCCNCc4ccccc4)c3C2=O)cc1OC` [Cpd 54, 4-(2-benzylamino-ethoxy)-2-(3,4-dimethoxy-benzyl)-isoindole-1,3-dione]: the inhibition at 10 µM came to 15%, the inhibition at 50 µM was 81% and the half-maximal inhibitory concentration (IC50) is 21 µM.

For `Cc1c(CN2C(=O)c3cccc(N4CCN(Cc5ccccc5)CC4)c3C2=O)cnn1C` [Cpd 55, 4-(4-benzyl-piperazin-1-yl)-2-(1,5-dimethyl-1H-pyrazol-4-ylmethyl)-isoindole-1,3-dione], the inhibition at 10 µM is 12%, the inhibition at 50 µM worked out at 75% and the IC50 stood at 24 µM.

`COc1ccc(CN2CCN(c3cccc4c3C(=O)N(Cc3ccc(OC)c(OC)c3)C4=O)CC2)cc1OC` [Cpd 56, 2-(3,4-dimethoxy-benzyl)-4-[4-(3,4-dimethoxy-benzyl)-piperazin-1-yl]-isoindole-1,3-dione]: the inhibition at 10 µM was determined as 21%, the inhibition at 50 µM is 68% and the half-inhibitory concentration (IC50) was 25 µM.

Take `COc1ccc(CN2C(=O)c3cccc(N4CCN(Cc5ccc(Cl)cc5)CC4)c3C2=O)cc1OC` [Cpd 57, 4-[4-(4-chloro-benzyl)-piperazin-1-yl]-2-(3,4-dimethoxy-benzyl)-isoindole-1,3-dione]: the inhibition at 10 µM was 19%, the inhibition at 50 µM was determined as 58% and the IC50 came to 30 µM.

Take `COc1cc(CN2C(=O)c3cccc(N4CCN(Cc5ccccc5)CC4)c3C2=O)ccn1` [Cpd 58, 4-(4-benzyl-piperazin-1-yl)-2-(2-methoxy-pyridin-4-ylmethyl)-isoindole-1,3-dione]: the inhibition at 10 µM was determined as 25%, the inhibition at 50 µM was 60% and the IC50 amounted to 32 µM.

In the case of `O=C1c2cccc(N3CC4CCC(C3)N4Cc3ccccc3)c2C(=O)N1Cc1ccccn1` [Cpd 59, 4-(8-benzyl-3,8-diaza-bicyclo[3.2.1]oct-3-yl)-2-pyridin-2-ylmethyl-isoindole-1,3-dione], the inhibition at 10 µM is 11%, the inhibition at 50 µM is 56% and the IC50 was 34 µM.

Regarding `COc1cc(CN2C(=O)c3cccc(N4CCN(CC(C)C)CC4)c3C2=O)cc(OC)c1OC` [Cpd 60, 4-(4-isobutyl-piperazin-1-yl)-2-(3,4,5-trimethoxy-benzyl)-isoindole-1,3-dione], the inhibition at 10 µM was found to be 8%, the inhibition at 50 µM was 52% and the IC50 stood at 42 µM.

For the compound `COc1ccc(N2C(=O)c3cccc(N4CC5CCC(C4)N5Cc4ccccc4)c3C2=O)cc1OC` [Cpd 61, 4-(8-benzyl-3,8-diaza-bicyclo[3.2.1]oct-3-yl)-2-(3,4-dimethoxy-phenyl)-isoindole-1,3-dione], the inhibition at 10 µM was found to be 31%, the inhibition at 50 µM amounted to 49% and the IC50 was 48 µM.

With `COc1ccc(CN2C(=O)c3c(C=CS(C)(=O)=O)ccc(N4CCN([C@H](C)c5ccccc5)CC4)c3C2=O)cc1OC` [Cpd 62, 2-(3,4-dimethoxy-benzyl)-4-(2-methanesulfonyl-vinyl)-7-[4-(1R)-(1-phenyl-ethyl)-piperazin-1-yl]-isoindole-1,3-dione], the inhibition at 10 µM amounted to 99%, the inhibition at 50 µM came out at 102% and the IC50 came out at 0.72 µM.
